The text below walks through data of patent US11691962B2 (eXIthera Pharmaceuticals, Inc., priority 2018, dated 2023).

In one data set the target is Thrombin (Homo sapiens (Human), UniProt P00734). Briefly: Dose response assay for protease inhibitors: thrombin. Type of data set: biochemical. Particulars: selectivity, thrombin over Factor XIa. A digest of the protocol:
(§1)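 Glp-Pro-Arg-AMC substrate (thrombin, trypsin) or Pro-Phe-Arg-AMC/Boc-Leu-Gly-Arg-AMC (Factor Xa), diluted to 100 μM, in 20 mM Hepes pH 7.4, 150 mM NaCl, 0.02% Tween 20; enzyme diluted to 0.5 nM before addition. Two-fold serial compound dilutions; kinetic reads at 30° C. Data yield IC50 and Kon.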

Another data set has as its system Trypsin. Nature of the data set: Dose response assay for protease inhibitors: trypsin. Type of data set: biochemical. The conditions noted are these: selectivity, trypsin over Factor XIa. A digest of the protocol: as §1
Data set [1] can be described thus: Metabolic stability in dog hepatocytes. The data set is classed as in vitro ADME. Particulars: pooled cryopreserved hepatocytes; beagle dog hepatocytes, 2 μM compound; read-out: Dog Hepatocyte Stability (t1/2). As to the method: The following procedure was used to determine the stability of test compounds in beagle dog hepatocytes in a 96-well plate format. The test compounds, including the controls, imipramine and 7-ethoxycoumarin, were dissolved at 10 mM in DMSO, followed by further 5-fold dilution with DMSO to 2 mM. Pooled cryopreserved beagle dog hepatocytes were thawed and transferred into complete medium. Cells were gently centrifuged (700 rpm for 5 min) and the pellet rinsed with KHB (Krebs Henseleit buffer). Cells were resuspended, counted using Trypan blue, and adjusted to 1 million cells/mL in KHB buffer. The 2 mM compound stock solutions were diluted 10-fold with acetonitrile, followed by a further 50-fold dilution with KHB buffer. 200 μL of these compound solutions were transferred to 96-well polypropylene assay plates and an equal volume of the hepatocyte solution was added and mixed to initiate the reaction (final assay concentrations were 2 μM compound and 500,000 cells/mL). Assay plates were incubated at 37° C. in 5% CO2 with gentle agitation. 50 μL aliquots were removed at multiple time points out to 180 minutes and quenched with 6 volumes of cold acetonitrile (containing 250 ng/mL of carbutamide and chrysin as internal standards) to terminate the reaction and precipitate protein. Quenched samples were maintained on ice. The quenched samples were centrifuged at 2000×g (3100 rpm) for 10 minutes at 4° C. 50 μL aliquots of the supernatants were removed and diluted with 100 μL Milli-Q water to reduce the % organic content prior to bioanalysis by LC-MS/MS. Peak areas corresponding to the test compound were recorded. The compound remaining was calculated by comparing the peak area at each time point to time zero. Data were analyzed and results were calculated using Microsoft Excel 2010.

Data set [2] is described as follows: Aqueous solubility in PBS by HPLC-UV/VIS. The data set is classed as physicochemical. Particulars: phosphate buffered saline, aqueous buffer, kinetic from dmso stock; PBS pH 7.4, 2% DMSO, 24 h at room temperature. On the procedure: The following procedure was used to determine the aqueous solubility of a test compound in phosphate buffered saline (PBS-NaCl 137 mM, KCl 2.7 mM, Na2HPO4 8.1 mM, KH2PO4 1.5 mM, pH 7.4) in 96-well plate format by HPLC-UV/VIS analysis. The test compound was prepared at 200 μM in PBS from a 10 mM DMSO stock solution. The final DMSO concentration was 2%. The PBS buffer samples were mixed thoroughly followed by incubation at room temperature for 24 h. At the end of the incubation, the PBS buffer samples were centrifuged and supernatants analyzed by HPLC. The aqueous solubility (μM) of the test compound in PBS was determined by comparing the peak area of the principal peak in the calibration standard (200 μM) with the peak area of the corresponding peak in each of the PBS samples. The range of the assay was approximately 0.5 μM to 200 μM. The reference compounds used in each assay were metoprolol, rifampicin, ketoconazole, phenytoin, haloperidol, simvastatin, diethylstilbestrol, and tamoxifen ranking from fully soluble (200 μM) to poorly soluble (<1 μM).

≈ marks a conversion by molar mass, not a printed value.

As a reminder, the solubility is the dissolved amount per volume that the medium holds. As to `CC[C@@H](NC(=O)N1C(=O)[C@H](Cc2cc(C)nc(N)c2)[C@H]1C(=O)N(C)c1nccn1C)c1cccc(Cl)c1` [Compound 1-43, (2S,3R)-3-((2-amino-6-methylpyridin-4-yl)methyl)-N2-(1-methyl-1H-imidazol-2-yl)-N1-((R)-1-(3-chlorophenyl)propyl)-N2-methyl-4-oxoazetidine-1,2-dicarboxamide], the “Ratio: Thrombin/FXIa” value at Thrombin is recorded as “H (“H” indicates 101-1000)”. In the data set on Trypsin, the “Ratio: Trypsin/FXIa” value is listed as “G (“G” indicates 1-100)”. Further, the half-life at 2 μM in data set [1] was in the range of 2.02 to 4 h. In addition, in data set [2], the solubility at 24 h was greater than 100 µM.
The like results for `CC[C@@H](NC(=O)N1C(=O)[C@H](Cc2cc(C)nc(NC)c2)[C@H]1C(=O)N(C)c1nccn1C)c1ccccc1` [Compound 1-45, (2S,3R)-3-((2-methylamino-6-methylpyridin-4-yl)methyl)-N2-(1-methyl-1H-imidazol-2-yl)-N1-((R)-1-phenylpropyl)-N2-methyl-4-oxoazetidine-1,2-dicarboxamide] were, in that order, “H (“H” indicates 101-1000)”, “G (“G” indicates 1-100)”, 2.02 to 4 h and greater than 100 µM.
The like results for `CC[C@@H](NC(=O)N1C(=O)[C@H](Cc2cc(C)nc(NC)c2)[C@H]1C(=O)N(C)c1nccn1C)c1cccc(Cl)c1` [Compound 1-46, (2S,3R)-3-((2-methylamino-6-methylpyridin-4-yl)methyl)-N2-(1-methyl-1H-imidazol-2-yl)-N1-((R)-1-(3-chlorophenyl)propyl)-N2-methyl-4-oxoazetidine-1,2-dicarboxamide] were, in that order, “H (“H” indicates 101-1000)”, “G (“G” indicates 1-100)”, 1.02 to 2 h and greater than 100 µM.
For `CC[C@@H](NC(=O)N1C(=O)[C@H](Cc2ccnc(N)c2)[C@H]1C(=O)N(C)c1ccn(C)n1)C1CCCCC1` [Compound 1-47, (2S,3R)-3-((2-aminopyridin-4-yl)methyl)-N2-(1-methyl-1H-pyrazol-3-yl)-N1-((R)-1-cyclohexylpropyl)-N2-methyl-4-oxoazetidine-1,2-dicarboxamide] the same measures were “H (“H” indicates 101-1000)”, “G (“G” indicates 1-100)”, 1.02 to 2 h and greater than 100 µM.
As to `C[C@@H](NC(=O)N1C(=O)[C@H](Cc2ccnc(N)c2)[C@H]1C(=O)N(C)c1ccn(C)n1)C1CCCCC1` [Compound 1-50, (2S,3R)-3-((2-aminopyridin-4-yl)methyl)-N2-(1-methyl-1H-pyrazol-3-yl)-N1-((R)-1-cyclohexylethyl)-N2-methyl-4-oxoazetidine-1,2-dicarboxamide], the “Ratio: Thrombin/FXIa” value at Thrombin is listed as “H (“H” indicates 101-1000)”. For the same molecule, the “Ratio: Trypsin/FXIa” value in the data set with Trypsin was “G (“G” indicates 1-100)”. The half-life at 2 μM in data set [1] is 1.02 to 2 h. Also, in data set [2], the solubility at 24 h is greater than 100 µM.
On to `CC[C@@H](NC(=O)N1C(=O)[C@H](Cc2cc(C)nc(N)c2)[C@H]1C(=O)N(C)c1nccn1C)c1ccccc1` [Compound 1-51, (2S,3R)-3-((2-amino-6-methylpyridin-4-yl)methyl)-N2-(1-methyl-1H-imidazol-2-yl)-N1-((R)-1-phenylpropyl)-N2-methyl-4-oxoazetidine-1,2-dicarboxamide], for which the “Ratio: Thrombin/FXIa” value on Thrombin was “H (“H” indicates 101-1000)”. Also, the “Ratio: Trypsin/FXIa” value in the data set with Trypsin is “G (“G” indicates 1-100)”. In addition, in data set [1], the half-life at 2 μM is greater than 4 h. Besides, the solubility at 24 h in data set [2] is greater than 100 µM.
For `CC[C@@H](NC(=O)N1C(=O)[C@H](Cc2ccnc(N)c2)[C@H]1C(=O)N(C)c1nccn1C)C1CCCCC1` [Compound 1-55, (2S,3R)-3-((2-aminopyridin-4-yl)methyl)-N2-(1-methyl-1H-imidazol-2-yl)-N1-((R)-1-cyclohexylpropyl)-N2-methyl-4-oxoazetidine-1,2-dicarboxamide] the same measures were “H (“H” indicates 101-1000)”, “G (“G” indicates 1-100)”, 1.02 to 2 h and greater than 100 µM.
The like results for `CC(C)[C@@H](NC(=O)N1C(=O)[C@H](Cc2ccnc(N)c2)[C@H]1C(=O)N(C)c1ccn(C)n1)C1CCCCC1` [Compound 1-57, (2S,3R)-3-((2-aminopyridin-4-yl)methyl)-N2-(1-methyl-1H-pyrazol-3-yl)-N1-((R)-1-cyclohexyl-2-methylpropyl)-N2-methyl-4-oxoazetidine-1,2-dicarboxamide] were, in that order, “H (“H” indicates 101-1000)”, “G (“G” indicates 1-100)”, less than 1 h and 10 to 100 µM (≈ 4.96 to 49.6 µg/mL).
For `CN(C(=O)[C@@H]1[C@@H](Cc2ccnc(N)c2)C(=O)N1C(=O)N[C@@H](C1CCCCC1)C1CC1)c1ccn(C)n1` [Compound 1-58, (2S,3R)-3-((2-aminopyridin-4-yl)methyl)-N2-(1-methyl-1H-pyrazol-3-yl)-N1-((R)-cyclohexyl-cyclopropylmethyl)-N2-methyl-4-oxoazetidine-1,2-dicarboxamide] the same measures were “H (“H” indicates 101-1000)”, “G (“G” indicates 1-100)”, less than 1 h and greater than 100 µM.
Turning to `CC[C@@H](NC(=O)N1C(=O)[C@H](Cc2cc(C)nc(NC)c2)[C@H]1C(=O)N(C)c1ccnn1C)C1CCCCC1` [Compound 1-62, (2S,3R)-3-((2-methylamino-6-methylpyridin-4-yl)methyl)-N2-(1-methyl-1H-pyrazol-5-yl)-N1-((R)-1-cyclohexylpropyl)-N2-methyl-4-oxoazetidine-1,2-dicarboxamide], the “Ratio: Thrombin/FXIa” value on Thrombin was “I (“I” indicates > 500)”. The “Ratio: Trypsin/FXIa” value with Trypsin was “G (“G” indicates 1-100)”. Besides, the half-life at 2 μM in data set [1] is less than 1 h. In data set [2], this molecule yielded a solubility at 24 h greater than 100 µM.
With `CC[C@@H](NC(=O)N1C(=O)[C@H](Cc2ccnc(N)c2)[C@H]1C(=O)N(C)c1ccnn1C)C1CCCCC1` [Compound 1-63, (2S,3R)-3-((2-aminopyridin-4-yl)methyl)-N2-(1-methyl-1H-pyrazol-5-yl)-N1-((R)-1-cyclohexylpropyl)-N2-methyl-4-oxoazetidine-1,2-dicarboxamide], the “Ratio: Thrombin/FXIa” value at Thrombin is recorded as “I (“I” indicates > 500)”. Also, the “Ratio: Trypsin/FXIa” value with Trypsin is “G (“G” indicates 1-100)”. Also, the half-life at 2 μM in data set [1] is less than 1 h. This molecule returned a solubility at 24 h in data set [2] greater than 100 µM.
The like results for `CC[C@@H](NC(=O)N1C(=O)[C@H](Cc2cc(C)nc(N)c2)[C@H]1C(=O)N(C)c1ccnn1C)C1CCCCC1` [Compound 1-67, (2S,3R)-3-((2-amino-6-methylpyridin-4-yl)methyl)-N2-(1-methyl-1H-pyrazol-5-yl)-N1-((R)-1-cyclohexylpropyl)-N2-methyl-4-oxoazetidine-1,2-dicarboxamide] were, in that order, “I (“I” indicates > 500)”, “G (“G” indicates 1-100)”, 1.02 to 2 h and greater than 100 µM.
For `CC[C@@H](NC(=O)N1C(=O)[C@H](Cc2ccnc(N)c2)[C@H]1C(=O)N(C)c1nccn1C)c1cccc(C)c1` [Compound 1-80, (2S,3R)-3-((2-aminopyridin-4-yl)methyl)-N2-(1-methyl-1H-imidazol-2-yl)-N1-((R)-1-(3-methylphenyl)propyl)-N2-methyl-4-oxoazetidine-1,2-dicarboxamide] the same measures were “H (“H” indicates 101-1000)”, “G (“G” indicates 1-100)”, 2.02 to 4 h and greater than 100 µM.
